Like-named read-outs stand apart in the source and are kept apart here. Each block holds one molecule with its values, some of them ahead of it.
Experiments:
[1] = test system: kinase expression levels in Jurkat cells; assay: Label-free quantitative proteomics of kinase parent inhibitors; type: cell-based, human; settings: 6 h
Procedure: CO2. After incubation, the BRET signals were measured by a PHERAstar plate reader (BMG Labtech) following the same procedure as intact NanoBRET® measurement. Competitive displacement data were then normalized to controls and were plotted using GraphPad Prism 9 software employing a normalized 3-parameter curve fit with the following equation: […]
The effects of the compounds on cell viability was determined using the CellTiter-Glo® 2.0 Cell Viability Assay (Promega: G9241) following manufacturer’s protocol. Ten µL of Jurkat cells at […]
After equilibration, PROTACs were titrated at various concentrations using an Echo acoustic […]
volume of CellTiter-Glo® 2.0 reagent (10 µL) was added to each well and cells were incubated for 10 minutes at room temperature. Filtered luminescence was measured on a PHERAstar plate reader (BMG Labtech) and data was evaluated using GraphPad Prism 9 software employing a normalized curve it with the following equation: Y=Bottom + (Top-Bottom)/(1+10(LogEC50-X) *HillSlope).
Sample preparation. Jurkat cells (ATCC © HTB-22) were cultured in RPMI (Thermo:
Cells were seeded in 6 well plates (Greiner:
50 µl of SDS Lysis Buffer (2% SDS, 50 mM TRIS pH 8.5, 10 mM TCEP, 40 mM CAA) was added to each sample. Cells were transferred into low binding reaction tubes (Eppendorf: […]
Protein yield was determined by […]

ITK^HiBiT = molecular target: T1, ITK^HiBiT (Homo sapiens, UniProt Q08881); assay: HiBiT assay, Jurkat cells expressing ITK^HiBiT; type: cell-based; settings: 6 h
T1 construct: HiBiT-ITK construct was cloned by PCR amplification of vector containing full-length; expressed in transfected cells
T1 sequence (Q08881 1-620): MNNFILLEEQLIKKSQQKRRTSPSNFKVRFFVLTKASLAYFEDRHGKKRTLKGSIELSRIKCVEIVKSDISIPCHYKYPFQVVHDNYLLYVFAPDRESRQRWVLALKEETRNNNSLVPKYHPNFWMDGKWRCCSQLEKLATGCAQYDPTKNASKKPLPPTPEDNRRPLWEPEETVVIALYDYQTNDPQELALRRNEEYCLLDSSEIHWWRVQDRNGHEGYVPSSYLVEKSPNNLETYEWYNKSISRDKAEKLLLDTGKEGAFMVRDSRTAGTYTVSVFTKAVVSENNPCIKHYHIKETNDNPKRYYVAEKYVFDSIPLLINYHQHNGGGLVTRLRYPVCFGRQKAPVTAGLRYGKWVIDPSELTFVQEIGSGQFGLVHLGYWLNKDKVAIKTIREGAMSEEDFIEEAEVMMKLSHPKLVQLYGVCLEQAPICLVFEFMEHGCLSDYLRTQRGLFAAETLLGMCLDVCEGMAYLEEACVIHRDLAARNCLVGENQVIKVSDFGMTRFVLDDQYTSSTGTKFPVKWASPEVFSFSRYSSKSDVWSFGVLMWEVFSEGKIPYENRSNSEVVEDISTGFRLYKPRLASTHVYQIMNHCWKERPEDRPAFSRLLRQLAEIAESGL
Procedure: Cell culture. Human MV4-11 ([…]) and human Jurkat ([…]) cells were cultured in RPMI- […]
1640 medium whereas human HEK293 ([…]) cells were cultured in DMEM medium at 37 °C in 5% CO2. Both media were supplemented with 10% FBS and 1% penicillin/streptomycin.
Cloning. HiBiT-ITK construct was cloned by PCR amplification of vector containing full-length
ITK. The PCR product was inserted into pRRL-PGK-HiBiT entry vector using AgeI/MluI sites.
The following primers were used for cloning HiBiT-ITK; forward: […]
Cell line generation. The stable cell line MV4-11 AURORA−HiBiT was generated as previously described.14 Lentiviral infection was used to generate the stable Jurkat HiBiT cell line.
Lentivirus was produced using plasmids psPAX2, pMD2.G, and HiBiT-ITK plasmid in HEK293 cells. Jurkat cells were infected with filtered virus supernatant and selected after 48 h of infection for the generation of the stable JurkatITK-HiBiT cell line.
HiBiT Measurements. HiBiT assay was performed as described previously. 14 Briefly, MV4-11 and Jurkat HiBiT cells were seeded and treated with compounds for the indicated time. Nano-Glo HiBiT Lytic Detection System (Promega) was used for the assay and luminescence was measured on a Tecan Spark Multiplate reader (Tecan). DC50s were calculated using the dose-response (four parameters) equation in Prism (GraphPad).

AURKA = molecular target: T2, AURKA (Homo sapiens, UniProt O14965); assay: cell-based; parameters: species or system HEK293T; NanoBRET tracer displacement in intact cells, NanoLuc fusion protein, Tracer K10; settings: intact cells; read-out: AURKA intact (IC50±sd)/µM
T2 sequence (O14965 1-403): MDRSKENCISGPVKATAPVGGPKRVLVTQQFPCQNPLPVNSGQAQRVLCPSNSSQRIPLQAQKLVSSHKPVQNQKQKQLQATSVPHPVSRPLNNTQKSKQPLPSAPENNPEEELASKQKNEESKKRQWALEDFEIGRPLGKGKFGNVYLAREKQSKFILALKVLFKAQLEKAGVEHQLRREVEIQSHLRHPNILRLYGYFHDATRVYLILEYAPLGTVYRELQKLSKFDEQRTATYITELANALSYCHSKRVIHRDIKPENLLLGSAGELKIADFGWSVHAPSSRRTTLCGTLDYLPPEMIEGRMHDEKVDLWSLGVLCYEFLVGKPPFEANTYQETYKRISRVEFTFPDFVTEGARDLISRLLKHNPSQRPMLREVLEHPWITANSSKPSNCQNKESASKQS
Excerpt: (§1) Compounds were pipetted at various concentrations using an Echo acoustic dispenser (Labcyte), immediately followed by Tracer K10 (Promega, Tracer DB ID: T000008) for AAK1 and Aurora A and VHL Tracer (Promega, Tracer DB ID: T000019) for VHL, at an optimum KD concentration chosen from TracerDB (tracerdb.org), respectively.

full-length AAK1 [2] = molecular target: T3, full-length AAK1 (Homo sapiens, UniProt Q2M2I8); assay: cell-based; parameters: species or system HEK293T; NanoBRET tracer displacement in intact cells, NanoLuc fusion protein, Tracer K10; settings: intact cells; read-out: AAK1 intact (IC50±sd)/µM
Excerpt: as §1

full-length AAK1 [3] = molecular target: T3, full-length AAK1; assay: cell-based; parameters: species or system HEK293T; NanoBRET tracer displacement in permeabilized cells, NanoLuc fusion protein, Tracer K10; settings: permeabilized cells; read-out: AAK1 permeabilized (IC50±sd)/µM

T3 sequence (Q2M2I8 whole entry, the tested form may be a part): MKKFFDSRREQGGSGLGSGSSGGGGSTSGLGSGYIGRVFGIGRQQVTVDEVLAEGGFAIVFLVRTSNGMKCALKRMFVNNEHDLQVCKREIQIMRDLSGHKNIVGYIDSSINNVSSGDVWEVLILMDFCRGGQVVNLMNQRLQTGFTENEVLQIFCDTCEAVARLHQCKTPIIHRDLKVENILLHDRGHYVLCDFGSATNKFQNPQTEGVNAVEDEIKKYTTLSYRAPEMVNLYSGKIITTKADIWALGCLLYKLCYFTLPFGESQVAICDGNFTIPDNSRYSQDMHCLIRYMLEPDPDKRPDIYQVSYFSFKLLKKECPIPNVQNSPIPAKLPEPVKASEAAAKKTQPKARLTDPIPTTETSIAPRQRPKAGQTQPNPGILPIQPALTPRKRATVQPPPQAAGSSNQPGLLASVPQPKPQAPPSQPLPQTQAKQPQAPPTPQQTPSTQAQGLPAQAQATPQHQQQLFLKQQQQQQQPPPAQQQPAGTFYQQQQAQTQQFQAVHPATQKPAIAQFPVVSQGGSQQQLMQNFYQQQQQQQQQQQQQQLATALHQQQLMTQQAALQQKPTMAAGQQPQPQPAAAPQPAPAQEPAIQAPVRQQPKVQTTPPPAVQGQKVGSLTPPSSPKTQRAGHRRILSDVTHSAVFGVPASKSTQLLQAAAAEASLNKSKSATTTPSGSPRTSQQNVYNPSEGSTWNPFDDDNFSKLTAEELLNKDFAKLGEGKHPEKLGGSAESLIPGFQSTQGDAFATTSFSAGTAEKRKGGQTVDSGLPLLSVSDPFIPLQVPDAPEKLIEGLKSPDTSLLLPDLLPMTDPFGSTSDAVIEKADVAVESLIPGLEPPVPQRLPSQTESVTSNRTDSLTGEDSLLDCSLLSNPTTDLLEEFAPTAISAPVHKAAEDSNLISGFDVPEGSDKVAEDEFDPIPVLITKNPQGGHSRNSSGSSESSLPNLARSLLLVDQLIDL

Compound: CCOC(=O)c1cc(Nc2cc(C3CC3)[nH]n2)nc(Nc2ccc(CC#N)cc2)n1 [compound 5]
kinases with reduced protein levels ([1]; 0.25 μM): reduced protein levels of PLK1 and BUB1
kinases with reduced protein levels ([1]; 2.5 μM): no additional kinases showed lower protein levels

DC50 (ITK^HiBiT): 42 nM
Dmax (ITK^HiBiT): ≤ 71%
concentration at which a hook effect was observed (ITK^HiBiT): > 1 µM
Compound: Cc1ncsc1-c1ccc(CNC(=O)[C@@H]2C[C@@H](O)CN2C(=O)[C@@H](NC(=O)CCOCCOCCOCCOCCN2CCN(c3ccc(Nc4ncc(Cl)c(Nc5ccccc5C(N)=O)n4)cc3)CC2)C(C)(C)C)cc1 [6-b]

IC50 (AURKA): 5.04 ± 1.12 µM
IC50 (full-length AAK1 [2]): 0.108 ± 0.042 µM
IC50 (full-length AAK1 [3]): 0.04 ± 0.001 µM
Compound: Cc1ncsc1-c1ccc(CNC(=O)[C@@H]2C[C@H](O)CN2C(=O)[C@@H](NC(=O)CCOCCOCCOCCN2CCN(c3cc(Nc4cc(C5CC5)[nH]n4)nc(Nc4ccc(CC#N)cc4)n3)CC2)C(C)(C)C)cc1 [4-a^neg]

DC50 (ITK^HiBiT): 937 nM
Dmax (ITK^HiBiT): ≤ 71%
Compound: Cc1ncsc1-c1ccc(CNC(=O)[C@@H]2C[C@@H](O)CN2C(=O)[C@@H](NC(=O)CCOCCOCCOCCN2CCN(c3cc(Nc4cc(C5CC5)[nH]n4)nc(Nc4ccc(CC#N)cc4)n3)CC2)C(C)(C)C)cc1 [4-a]

Source: paper PMC11851430, “Workflow for E3 Ligase Ligand Validation for PROTAC Development” (ACS Chemical Biology, 2025)
